Data set [1] addresses T1, human CCR6 (Homo sapiens, UniProt P51684).
T1 construct: expressed in transfected cells; host or cells: HEK293
T1 sequence (P51684 1-374): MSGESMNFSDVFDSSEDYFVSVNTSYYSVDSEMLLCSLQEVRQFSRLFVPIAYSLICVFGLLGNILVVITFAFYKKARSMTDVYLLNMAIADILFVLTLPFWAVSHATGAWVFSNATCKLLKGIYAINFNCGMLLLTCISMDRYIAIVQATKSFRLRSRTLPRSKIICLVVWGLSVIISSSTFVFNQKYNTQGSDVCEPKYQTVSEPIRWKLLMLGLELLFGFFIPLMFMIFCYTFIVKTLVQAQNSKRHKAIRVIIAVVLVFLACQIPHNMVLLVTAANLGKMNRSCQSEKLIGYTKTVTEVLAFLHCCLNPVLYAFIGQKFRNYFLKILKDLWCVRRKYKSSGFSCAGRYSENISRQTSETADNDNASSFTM
In words: human CCR6 calcium flux activity (FLIPR, HEK293 cells stably expressing human CCR6, CCL20 stimulation). It counts as cell-based. The note with it: HEK293 cells stably expressing human CCR6, EC80 human MIP-3 alpha/CCL20; read-out: CCR6 inhibitory activity, IC50. As to the method:
The activity of the compounds was evaluated using HEK293 cells stably expressing human CCR6 via the FLIPR platform. A 384-well black cell culture plate (Greiner, 781946) was used, with a seeding density of 20,000 cells/well, and incubated overnight at 37°C in a 5% CO2 incubator. The culture medium in the cell plate wells was removed, and 20 µL of Fluo-4 Direct™ Calcium Assay Buffer (Invitrogen, F10471, Component C), 20 µL of 2× Fluo-4 Direct™ Calcium Assay Reagent (Invitrogen, F10471, Component A) working solution, and 10 µL of 6× test compound working solution were sequentially added to each well. The cell plate was incubated in a 37 °C, 5% CO2 incubator for 50 min, followed by a 10 min incubation at room temperature. Additionally, a 6×EC80 human MIP-3 alpha/CCL20 (MCE, HY-P7262) working solution was prepared. After the incubation was completed, 10 µL/well of the 6×EC80 human MIP-3 alpha/CCL20 working solution was transferred to the cell plate using a FLIPR instrument, and the fluorescence signal changes at an excitation wavelength of 494 nm and an emission wavelength of 516 nm were recorded over 90 seconds. The difference between the maximum fluorescence signal (RFUMax) and the minimum fluorescence signal (RFUMin) was used as the output signal. The compound inhibition rate and the log value of the compound concentration were calculated, and a four-parameter fitting analysis was performed using GraphPad Prism 8 software to obtain the IC50 value of the test compound.

Data set [2] is described as follows: in vivo pharmacokinetic study in SD rats. Conditions: male, rat, plasma; for bioavailability: 1 mg/kg PO vs 1 mg/kg IV, read-out: Oral bioavailability F (%). As to the method: 2.2.1 Rats: SD rats, SPF grade, 6 rats per compound, male, body weight range 180-200 g.
2.2.2 Housing conditions: The animals were housed in an SPF-grade animal facility with free access to food and water, three per cage, under a 12/12-hour light/dark cycle (7:00 am/7:00 pm), at a temperature of 23 ± 3°C.
2.2.3 Drug preparation: The compound was precisely weighed, mixed with the required volume of 1% Tween 80, vortexed for 2 min, and then sonicated for 5 min until no visible particles remained. The mixture was subsequently stirred on a magnetic stirrer for 20 min, and the middle layer of the drug solution was collected for administration. For the IV group, the compound was accurately weighed, dissolved in the required volume of 50% PEG400, sonicated for 10 min, and vortexed until clear before administration.
The rats were randomly divided into 2 groups based on body weight, with 3 rats per compound per group. Group 1 was administered a single oral gavage dose (fasted), and Group 2 was administered a single tail vein bolus injection. Blood collection time points: for the po group, blood was collected at 0.167 h, 0.5 h, 1 h, 2 h, 3 h, 4 h, 6 h, and 8 h; for the iv group, blood was collected at 0.033 h, 0.167 h, 0.5 h, 1 h, 2 h, 4 h, 6 h, and 8 h.
After administration to the rats, blood was collected from the orbital venous plexus according to the sampling time points. Approximately 0.2-0.3 mL of blood was collected at each time point into anticoagulant EP tubes (containing 4 µL of EDTA-K2, 375 mg/mL, dried at 50°C). The tubes were slowly inverted up and down three times and stored in an ice box (for no more than 30 minutes). Centrifugation was performed at 4°C at 3000 × g for 10 minutes, and the supernatant was transferred to labeled EP tubes for bioanalytical testing. If testing could not be performed on the same day, the samples were stored at -80°C until analysis (care was taken to avoid multiple freeze/thaw cycles).
The data were analyzed using WinNonlin via a non-compartmental model to obtain PK parameters (Cmax, AUC0-last, AUCinf, T1/2, etc., selected based on different routes of administration). For specific data, please refer to Table 2. Table 2. PK experimental results of compounds in SD rats

As for `Cc1c(Cl)ccnc1[C@H](Nc1c(Nc2ccnc(C(=O)N(C)C)c2O)c(=O)c1=O)C1(C)CCCC1` [compound 048, (R)-4-((2-(((4-chloro-3-methylpyridin-2-yl)(1-methylcyclopentyl)methyl)amino)-3,4-dioxocyclobut-1-en-1-yl)amino)-3-hydroxy-N,N-dimethylpicolinamide], the IC50 in data set [1] was 60.8 nM.
The same measure, in the same setting: the result for `Cc1cncnc1C(Nc1c(Nc2ccnc(C(=O)N(C)C)c2O)c(=O)c1=O)C1(C)CCCC1` (centres unmarked) [compound 052, 3-hydroxy-N,N-dimethyl-4-((2-(((1-methylcyclopentyl)(5-methylpyrimidin-4-yl)methyl)amino)-3,4-dioxocyclobut-1-en-1-yl)amino)picolinamide] reads 196 nM; that for `Cc1cccnc1[C@H](Nc1c(Nc2ccnc(C(=O)N3CCOCC3)c2O)c(=O)c1=O)C1(C)CCCC1` [compound 059, (R)-3-((3-hydroxy-2-(morpholine-4-carbonyl)pyridin-4-yl)amino)-4-(((1-methylcyclopentyl)(3-methylpyridin-2-yl)methyl)amino)cyclobut-3-ene-1,2-dione], 13.6 nM; that for `Cc1cnc([C@H](Nc2c(Nc3ccnc(C(=O)N(C)C)c3O)c(=O)c2=O)C2(C)CCCC2)c(C)c1` [compound 061, (R)-4-((2-(((3,5-dimethylpyridin-2-yl)(1-methylcyclopentyl)methyl)amino)-3,4-dioxocyclobut-1-en-1-yl)amino)-3-hydroxy-N,N-dimethylpicolinamide], 152 nM.
Consider `Cc1cccnc1[C@H](Nc1c(Nc2ccnc(C(=O)N(C)C)c2O)c(=O)c1=O)C12CC(C1)C2` [compound 077, (R)-4-((2-((bicyclo[1.1.1]pentan-1-yl(3-methylpyridin-2-yl)methyl)amino)-3,4-dioxocyclobut-1-en-1-yl)amino)-3-hydroxy-N,N-dimethylpicolinamide], for which the bioavailability in data set [2] stood at 39.8%. In addition, the AUC(0-t) was determined as 683 ng·h/mL in data set [2] (1 mg/kg, IV) and 272 ng·h/mL in data set [2] (1 mg/kg, PO). For the same molecule, the Cmax in data set [2] (1 mg/kg, IV) is 2280 ng/mL; in data set [2] (1 mg/kg, PO) it was 158 ng/mL. The IC50 in data set [1] was found to be 17.6 nM.
`Cc1cccnc1[C@H](Nc1c(Nc2ccnc(C(=O)N(C)C)c2O)c(=O)c1=O)C1(C)CC(F)(F)C1` [compound 079, (R)-4-((2-(((3,3-difluoro-1-methylcyclobutyl)(3-methylpyridin-2-yl)methyl)amino)-3,4-dioxocyclobut-1-en-1-yl)amino)-3-hydroxy-N,N-dimethylpicolinamide]: the bioavailability in data set [2] was determined as 42.5%. In data set [2] (1 mg/kg, IV), the AUC(0-t) came out at 1180 ng·h/mL and the highest level (Cmax) was 3670 ng/mL. Further, in data set [2] (1 mg/kg, PO), the AUC(0-t) was 499 ng·h/mL, the Cmax was 566 ng/mL and the half-life was 2.01 h. In addition, in data set [1], the IC50 was found to be 17.3 nM.
Consider `Cc1cccnc1[C@H](Nc1c(Nc2ccc(C)c(C(=O)N(C)C)c2O)c(=O)c1=O)C1(C)CCCC1` [compound 103, (R)-2-hydroxy-N,N,6-trimethyl-3-((2-(((1-methylcyclopentyl)(3-methylpyridin-2-yl)methyl)amino)-3,4-dioxocyclobut-1-en-1-yl)amino)benzamide], for which the IC50 in data set [1] worked out at 73.6 nM.
In the case of `Cc1cccnc1[C@H](Nc1c(Nc2ccc(F)c(C(=O)N(C)C)c2O)c(=O)c1=O)C1(C)CCCC1` [compound 104, (R)-6-fluoro-2-hydroxy-N,N-dimethyl-3-((2-(((1-methylcyclopentyl)(3-methylpyridin-2-yl)methyl)amino)-3,4-dioxocyclobut-1-en-1-yl)amino)benzamide], the IC50 in data set [1] was 4 nM.
Same read-out and setting: in the case of `CN(C)C(=O)c1nccc(Nc2c(N[C@@H](C#Cc3ccccn3)C3(C)CCCC3)c(=O)c2=O)c1O` [compound 118, (R)-3-hydroxy-N,N-dimethyl-4-((2-((1-(1-methylcyclopentyl)-3-(pyridin-2-yl)prop-2-yn-1-yl)amino)-3,4-dioxocyclobut-1-en-1-yl)amino)picolinamide] it was 183 nM; in that of `Cc1ccc(F)nc1C(Nc1c(Nc2ccnc(C(=O)N(C)C)c2O)c(=O)c1=O)C1(C)CC2CC2C1` (centres unmarked) [compound 121, 4-((2-(((6-fluoro-3-methylpyridin-2-yl)(3-methylbicyclo[3.1.0]hexan-3-yl)methyl)amino)-3,4-dioxocyclobut-1-en-1-yl)amino)-3-hydroxy-N,N-dimethylpicolinamide], 86.2 nM.
For `Cc1cccnc1C(Nc1c(Nc2ccnc(C(=O)N(C)C)c2O)c(=O)c1=O)C1(C)CC2CC2C1` (centres unmarked) [compound 122, 3-hydroxy-N,N-dimethyl-4-((2-(((3-methylbicyclo[3.1.0]hexan-3-yl)(3-methylpyridin-2-yl)methyl)amino)-3,4-dioxocyclobut-1-en-1-yl)amino)picolinamide], the IC50 in data set [1] is 181 nM.
As for `Cc1cccnc1C(Nc1c(Nc2ccnc(C(=O)N(C)C)c2O)c(=O)c1=O)C1(C)CCC2CC21` (centres unmarked) [compound 123, 3-hydroxy-N,N-dimethyl-4-((2-(((2-methylbicyclo[3.1.0]hexan-2-yl)(3-methylpyridin-2-yl)methyl)amino)-3,4-dioxocyclobut-1-en-1-yl)amino)picolinamide], the IC50 in data set [1] worked out at 265 nM.

These data come from patent EP4703354A1, “COMPOUND AS CCR6 ANTAGONIST, AND PHARMACEUTICAL COMPOSITION AND USE THEREOF” (Wuhan Createrna Science and Technology Co.,Ltd., priority 2023, dated 2024).
